Here are results for four compounds from patent US5444070A, “Phenyl substituted heterocyclic compounds” (NeuroSearch A/S, priority 1992, dated 1995).

Series [1] has as its system abnormal stereotyped behaviour. The experiment in a line: abnormal stereotyped behaviour. The format is in vivo, rat. Conditions: at every relevant dosing level tested. From the text:
Backward locomotion may occasionally be observed.
+=only stereotyped sniffing
++=stereotyped sniffing and episodic licking
+++=Continuous licking and/or biting gnawing

The test system of series [2] is reuptake of dopamine in synaptosomes of rat forebrain. As to the kind of experiment: inhibition of dopamine reuptake in synaptosomes of rat forebrain. The class given is biochemical. Conditions: 3H-dopamine 1×10^-9 M, 10 min at 37° C., male Wistar rat forebrain synaptosomes; read-out: Dopamine reuptake inhibiting activity (IC50).
Method: Fresh whole forebrain (at 0°-4° C.) from male Wistar rats (150-200 g) is homogenized in a glass homogenizer with a teflon pestle in 20×volumes 0.32M sucrose. The homogenate is centrifuged at 1000×g (~2900 rpm) for 10 min. The pellet is discarded and the supernatant is used for uptake assays.
A Krebs Buffer (119 mM NaCl, 24 mM NaHCO3, 2.1 mM KCl, 1.2 mM KH2 PO4, 1.8 mM CaCl2, 2 mM MgSO4,7H2 O, 12 mM glucose) is equilibrated with an atmosphere of 96% O2 : 4% CO2 for at least 60 min at 37° C. To 5 ml Krebs-buffer 100 μl of the radioactivity is added (3H-dopamine 1×10^-9 M final concentration) and 100 μl test substance solution and 200 μl of tissue suspension. The samples are thoroughly mixed and incubated 10 min at 37° C. followed by 2 min at 0° C. After incubation the samples are poured directly onto Whatman GF/C glass fibre filters under suction and immediately washed with 2×5 ml ice-cold 0.9% saline (NaCl) buffer. To the filter is added 3 ml of scintillation fluid, and the amount of radioactivity on the filters is determined by conventional liquid scintillation counting.

With `COC(=O)[C@@H]1[C@@H](c2ccc(F)cc2)C[C@@H]2CC[C@H]1N2C` [trans isomer of Win 35,428, (1R,2R,3S)-2-carbomethoxy-3-(4-fluorophenyl)tropane, reference compound], the “side effects: abnormal stereotyped behaviour” value in series [1] is on record as “essentially or totally devoid of side effects”. What is called IC50 is the concentration that inhibits the measured activity by half. For the compound `CN1[C@H]2CC[C@@H]1[C@H](c1nc(-c3ccccc3)no1)[C@@H](c1ccc(Cl)cc1)C2` [(1R,2R,3S)-2-(3-phenyl-1,2,4-oxadiazol-5-yl)-3-(4-chlorophenyl)-tropane], the IC50 in series [2] was found to be 330 nM. On to `Cc1ccc([C@H]2C[C@@H]3CC[C@H]([C@@H]2c2nc(-c4ccccc4)no2)N3C)cc1` [(1R,2R,3S)-2-(3-phenyl-1,2,4-oxadiazol-5-yl)-3-(4-methylphenyl)-tropane], for which, in series [2], the IC50 came to 960 nM. On the same count and under the same terms, the figure for `CN1[C@H]2CC[C@@H]1[C@H](c1nc(-c3ccccc3)no1)[C@@H](c1ccc3ccccc3c1)C2` [(1R,2R,3S)-2-(3-phenyl-1,2,4-oxadiazol-5-yl)-3-(2-naphthyl)-tropane] is 540 nM.
